Reference: publication PMC6021127 (Nature chemistry, 2017)
Like-named read-outs stand apart in the source and are kept apart here.

How the values were obtained:
[1] = system: A2058 melanoma cell line; assay: Cytotoxicity against A2058 melanoma cells
[2] = system: DU145 prostate cancer cell line; assay: Cytotoxicity against DU145 prostate cancer cells
[3] = system: P388 murine leukemia cell lines; assay: Cytotoxicity against P388 murine leukemia cells
[4] = system: NCI 60 cell line panel; assay: NCI 60 cell line panel evaluation; assay type: cell-based; conditions: read-out: mean GI50
[5] = Homo sapiens, A2058, read-out: Cytotoxicity IC50, A2058
[6] = Homo sapiens, DU-145, read-out: Cytotoxicity IC50, DU145
[7] = read-out: Cytotoxicity IC50, A2058, A2058 melanoma cells
[8] = read-out: Cytotoxicity IC50, P388, P388 murine leukemia cells
[9] = read-out: Cytotoxicity IC50, DU145, DU145 prostate cancer cells

SMILES	IC50 [1, 5]	IC50 [2, 6]	IC50 [1, 7]	IC50 [3, 8]	IC50 [2, 9]	other results
COC(=O)C[C@](O)(CCCC(C)(C)O)C(=O)O[C@@H]1C(OC)=C[C@]23CCCN2CCc2cc4c(cc2[C@H]13)OCO4 [compound 1, homoharringtonine, reference compound]	170 nM	230 nM				
C[C@@H]1C[C@@H]([C@H](O)CC2CC(=O)NC(=O)C2)C(=O)[C@@H](C)C1 [compound 2, cycloheximide, reference compound]	> 10000 nM	> 10000 nM				IC50 ([3]; Mus musculus, P388, read-out: Cytotoxicity IC50, P388): 5600 nM
C=C1[C@@H](O)C[C@H]2C(C)(C)C[C@H](Cl)C[C@]2(C)[C@H]1C[C@H](O)[C@H]1CC(=O)NC1=O [compound 3, chlorolissoclimide]	250 nM	490 nM				GI50 [4]: 15 nM
C=C1[C@@H](O)C[C@H]2C(C)(C)[C@@H](Cl)[C@H](Cl)C[C@]2(C)[C@H]1C[C@H](O)[C@H]1CC(=O)NC1=O [compound 4, dichlorolissoclimide, reference compound]						IC50 ([3]; Mus musculus, P388, read-out: Cytotoxicity IC50 against P388): ~400 nM
C=C1[C@@H](OC(C)=O)C[C@H]2C(C)(C)C[C@H](Cl)C[C@]2(C)[C@H]1C[C@H](O)[C@H]1CC(=O)NC1=O [compound 7]			3460 nM	2100 nM	460 nM	
C=C1[C@@H](O)C[C@H]2C(C)(C)CCC[C@]2(C)[C@H]1C[C@H](O)[C@H]1CC(=O)NC1=O [compound 8, haterumaimide Q]			2340 nM	200 nM	1490 nM	
